Values of other authors, collected in patent publication US8338628B2, “Method of synthesizing alkylated bile acid derivatives” (City of Hope, priority 2007, dated 2012).

Columns and labels:
[1] = system: FXR; details: in vivo; recent studies
[2] = background statement
[3] = target: T1, farnesoid X receptor (FXR) (Homo sapiens, UniProt Q96RI1); details: background statement
T1 sequence (Q96RI1 1-486): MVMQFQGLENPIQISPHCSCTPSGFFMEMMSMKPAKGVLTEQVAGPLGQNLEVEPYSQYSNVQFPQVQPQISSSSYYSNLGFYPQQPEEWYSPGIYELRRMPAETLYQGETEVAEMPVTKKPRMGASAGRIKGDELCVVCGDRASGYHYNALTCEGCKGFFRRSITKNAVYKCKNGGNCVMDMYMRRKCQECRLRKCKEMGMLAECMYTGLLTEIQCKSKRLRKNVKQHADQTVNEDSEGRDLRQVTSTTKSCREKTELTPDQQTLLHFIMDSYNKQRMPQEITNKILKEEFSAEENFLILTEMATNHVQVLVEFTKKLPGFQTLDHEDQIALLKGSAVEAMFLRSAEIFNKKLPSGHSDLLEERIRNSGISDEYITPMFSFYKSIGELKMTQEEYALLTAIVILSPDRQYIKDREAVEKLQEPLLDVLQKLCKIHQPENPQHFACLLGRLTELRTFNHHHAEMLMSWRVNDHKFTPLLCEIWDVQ

| FXR activation (in words) [3] | Compound | HDL-cholesterol [1] | plasma triglycerides [1] | pharmacokinetic properties (in words) [2] |
| --- | --- | --- | --- | --- |
| – | CC(C)c1onc(-c2c(Cl)cccc2Cl)c1COc1ccc(/C=C/c2cccc(C(=O)O)c2)c(Cl)c1 [GW4064] | increases HDL-cholesterol | reduces plasma triglycerides | very poor pharmacokinetic properties |
| activate FXR | C[C@H](CCC(=O)O)[C@H]1CC[C@H]2[C@@H]3[C@H](O)C[C@@H]4C[C@H](O)CC[C@]4(C)[C@H]3C[C@H](O)[C@]12C [cholic acid] | – | – | – |
| – | CC[C@H]1[C@@H](O)[C@@H]2[C@H](CC[C@]3(C)[C@@H]([C@H](C)CCC(=O)O)CC[C@@H]23)[C@@]2(C)CC[C@@H](O)C[C@@H]12 [Compound 6-ECDCA, 3α,7α-Dihydroxy-6α-ethyl-5β-cholan-24-oic acid] | – | – | improved pharmacokinetic properties relative to GW4064 |
